# According to ChEMBL document CHEMBL1153283, “Synthesis and application of MeOSuc-Ala-Ala-Pro-Phe-CH2Cl as potent proteinase K inhibitor” (Bioorg Med Chem Lett, 2009):
# The source made the active and inactive calls. No cut-off for these calls is given here.
# How the values were obtained:
# [1] = Inhibition of proteinase K at 1 mM by RT-PCR
# [2] = Inhibition of proteinase K at 0.125 mM by independent digestion assay in presence of BSA
# [3] = Inhibition of proteinase K at […] by RT-PCR
# [4] = Inhibition of proteinase K at 0.25 mM by independent digestion assay in presence of BSA
# [5] = Inhibition of proteinase K at 0.05 mM by RT-PCR
SMILES,Activity [1],Activity [2],Activity [3],Activity [4],Activity [5]
COC(=O)CCC(=O)N[C@H](C)C(=O)N[C@@H](C)C(=O)N1CCC[C@H]1C(=O)N[C@H](C(=O)CCl)C(C)C,Active,Active,Active,–,–
COC(=O)CCC(=O)N[C@H](C)C(=O)N[C@@H](C)C(=O)N1CCC[C@H]1C(=O)N[C@@H](Cc1ccccc1)C(=O)CCl,–,–,–,Active,Active
